The record followed here is patent US7091202B2, “4-arylspirocycloalkyl-2-aminopyrimidine carboxamide KCNQ potassium channel modulators” (Bristol-Myers Squibb Company, priority 2004, dated 2006).

In this test the target is T1, hQ23 (HEK-293 cell line stably transfected with one of the members of the KCNQ family) (Homo sapiens, UniProt O43525+O43526).
T1 construct: expressed in transfected cells; host or cells: HEK-293, stably transfected
As to the kind of experiment: Thallium flux assay for KCNQ channel blockers (FLIPR, BTC dye). The test is classed as cell-based. The following applies: hQ23 cells, thallium flux assay. Summed up: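 HEK-293 cells stably expressing a KCNQ member, loaded with BTC-AM (2 μM) in chloride-free buffer, pH 7.3; compounds added at 1% DMSO, then Tl2SO4 stimulus on FLIPR (488/540 nm, 60 s). Minimal active concentration set at ≥4 SD above negative control; IC50 from 10-point 1:3 series, single-site logistic fit versus the positive-control blocker.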

T1 sequence (O43526 whole entry): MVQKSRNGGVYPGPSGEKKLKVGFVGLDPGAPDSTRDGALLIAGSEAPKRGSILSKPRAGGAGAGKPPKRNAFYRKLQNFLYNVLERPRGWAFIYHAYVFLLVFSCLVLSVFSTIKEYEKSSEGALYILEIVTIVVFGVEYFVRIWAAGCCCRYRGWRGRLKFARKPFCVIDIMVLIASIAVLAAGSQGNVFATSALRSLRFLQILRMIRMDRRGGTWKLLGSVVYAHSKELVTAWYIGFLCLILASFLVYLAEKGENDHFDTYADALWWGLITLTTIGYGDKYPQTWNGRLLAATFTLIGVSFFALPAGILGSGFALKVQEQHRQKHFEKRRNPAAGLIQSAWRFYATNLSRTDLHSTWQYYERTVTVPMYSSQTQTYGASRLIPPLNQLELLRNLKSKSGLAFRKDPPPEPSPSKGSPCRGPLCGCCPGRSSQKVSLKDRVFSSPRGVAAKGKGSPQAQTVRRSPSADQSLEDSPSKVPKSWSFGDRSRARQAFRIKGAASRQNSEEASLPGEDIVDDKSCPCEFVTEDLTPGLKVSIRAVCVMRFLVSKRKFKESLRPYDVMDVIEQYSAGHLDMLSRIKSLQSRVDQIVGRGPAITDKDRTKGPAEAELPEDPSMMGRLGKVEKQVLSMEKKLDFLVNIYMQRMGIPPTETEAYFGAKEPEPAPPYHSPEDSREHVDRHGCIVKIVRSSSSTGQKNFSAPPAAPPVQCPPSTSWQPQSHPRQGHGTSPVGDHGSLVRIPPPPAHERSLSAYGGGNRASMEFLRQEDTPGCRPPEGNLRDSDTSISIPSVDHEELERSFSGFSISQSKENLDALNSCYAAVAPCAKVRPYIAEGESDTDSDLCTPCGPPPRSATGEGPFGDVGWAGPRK
T1 sequence (O43525 whole entry): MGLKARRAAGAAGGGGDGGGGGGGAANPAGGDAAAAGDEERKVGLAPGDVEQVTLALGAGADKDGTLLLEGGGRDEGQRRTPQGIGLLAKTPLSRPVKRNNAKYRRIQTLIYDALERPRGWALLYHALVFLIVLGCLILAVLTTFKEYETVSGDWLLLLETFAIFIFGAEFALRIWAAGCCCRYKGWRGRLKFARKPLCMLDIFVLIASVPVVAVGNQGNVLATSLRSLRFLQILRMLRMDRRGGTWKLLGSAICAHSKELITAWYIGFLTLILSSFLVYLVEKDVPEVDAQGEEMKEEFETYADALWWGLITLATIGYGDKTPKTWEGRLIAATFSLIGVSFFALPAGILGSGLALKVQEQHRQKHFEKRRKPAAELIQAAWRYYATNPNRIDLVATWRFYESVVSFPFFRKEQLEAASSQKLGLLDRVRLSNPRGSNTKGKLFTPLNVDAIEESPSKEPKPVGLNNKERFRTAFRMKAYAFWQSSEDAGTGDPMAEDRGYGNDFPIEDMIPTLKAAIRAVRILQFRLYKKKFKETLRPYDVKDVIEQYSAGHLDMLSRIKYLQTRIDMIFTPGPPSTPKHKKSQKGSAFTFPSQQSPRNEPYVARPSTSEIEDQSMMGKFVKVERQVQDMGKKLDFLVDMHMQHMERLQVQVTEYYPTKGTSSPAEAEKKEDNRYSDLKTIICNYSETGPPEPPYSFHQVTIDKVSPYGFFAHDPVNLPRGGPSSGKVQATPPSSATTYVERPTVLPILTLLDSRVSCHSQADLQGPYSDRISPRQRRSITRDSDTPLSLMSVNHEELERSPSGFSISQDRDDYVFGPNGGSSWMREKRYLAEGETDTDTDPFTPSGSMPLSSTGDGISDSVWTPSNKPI

`CC1CCC(Nc2ncc(C(=O)NCc3ccc(Cl)cc3Cl)c(C3(c4ccc(F)cc4)CCCC3)n2)CC1` (stereo not shown) [Example 260, 5-pyrimidinecarboxamide, N-[(2,4-dichlorophenyl)methyl]-4-[1-(4-fluorophenyl)cyclopentyl]-2-[(4-methylcyclohexyl)amino]-] had a concentration for a half-maximal effect (EC50) of 10 nM. Consider `O=C(NCc1ccc(Cl)cc1Cl)c1cnc(N2CCCC2)nc1C1(c2ccc(F)cc2)CCCC1` [Example 261, 5-pyrimidinecarboxamide, N-[(2,4-dichlorophenyl)methyl]-4-[1-(4-fluorophenyl)cyclopentyl]-2-(1-pyrrolidinyl)-], for which the EC50 is 28 nM.

On to `CC1CCCN(c2ncc(C(=O)NCc3ccc(Cl)cc3Cl)c(C3(c4ccc(F)cc4)CCCC3)n2)C1` (stereo not shown) [Example 262, 5-pyrimidinecarboxamide, N-[(2,4-dichlorophenyl)methyl]-4-[1-(4-fluorophenyl)cyclopentyl]-2-(3-methyl-1-piperidinyl)-], for which the EC50 came out at 10 nM. To `CN1CCC(N(C)c2ncc(C(=O)NCc3ccc(Cl)cc3Cl)c(C3(c4ccc(F)cc4)CCCC3)n2)CC1` [Example 264, 5-pyrimidinecarboxamide, N-[(2,4-dichlorophenyl)methyl]-4-[1-(4-fluorophenyl)cyclopentyl]-2-[methyl(1-methyl-4-piperidinyl)amino]-] belongs 282 nM; to `CCC(C)Nc1ncc(C(=O)NCc2ccc(Cl)cc2Cl)c(C2(c3ccc(F)cc3)CCCC2)n1` (stereo not shown) [Example 265, 5-pyrimidinecarboxamide, N-[(2,4-dichlorophenyl)methyl]-4-[1-(4-fluorophenyl)cyclopentyl]-2-[(1-methylpropyl)amino]-], 138 nM.

`O=C(NCc1ccc(Cl)cc1Cl)c1cnc(NC2CCCC2)nc1C1(c2ccc(F)cc2)CCCC1` [Example 266, 5-pyrimidinecarboxamide, 2-(cyclopentylamino)-N-[(2,4-dichlorophenyl)methyl]-4-[1-(4-fluorophenyl)cyclopentyl]-] had an EC50 of 27 nM. The result for `CC1CCC(Nc2ncc(C(=O)NCc3ccc(F)cc3F)c(C3(c4ccc(F)cc4)CCCC3)n2)CC1` (stereo not shown) [Example 267, 5-pyrimidinecarboxamide, N-[(2,4-difluorophenyl)methyl]-4-[1-(4-fluorophenyl)cyclopentyl]-2-[(4-methylcyclohexyl)amino]-] reads 48 nM. The result for `CN1CCN(c2ncc(C(=O)NCc3ccc(F)cc3F)c(C3(c4ccc(F)cc4)CCCC3)n2)CC1` [Example 268, 5-pyrimidinecarboxamide, N-[(2,4-difluorophenyl)methyl]-4-[1-(4-fluorophenyl)cyclopentyl]-2-(4-methyl-1-piperazinyl)-] reads 634 nM. Turning to `CC1CCCN(c2ncc(C(=O)NCc3ccc(F)cc3F)c(C3(c4ccc(F)cc4)CCCC3)n2)C1` (stereo not shown) [Example 269, 5-pyrimidinecarboxamide, N-[(2,4-difluorophenyl)methyl]-4-[1-(4-fluorophenyl)cyclopentyl]-2-(3-methyl-1-piperidinyl)-], the EC50 amounted to 56 nM. To `CC1CCN(c2ncc(C(=O)NCc3ccc(F)cc3F)c(C3(c4ccc(F)cc4)CCCC3)n2)CC1` [Example 270, 5-pyrimidinecarboxamide, N-[(2,4-difluorophenyl)methyl]-4-[1-(4-fluorophenyl)cyclopentyl]-2-(4-methyl-1-piperidinyl)-] belongs 142 nM; to `CN1CCC(N(C)c2ncc(C(=O)NCc3ccc(F)cc3F)c(C3(c4ccc(F)cc4)CCCC3)n2)CC1` [Example 271, 5-pyrimidinecarboxamide, N-[(2,4-difluorophenyl)methyl]-4-[1-(4-fluorophenyl)cyclopentyl]-2-[methyl(1-methyl-4-piperidinyl)amino]-], 532 nM. `CN(C)CCNc1ncc(C(=O)NCc2ccc(F)cc2F)c(C2(c3ccc(F)cc3)CCCC2)n1` [Example 272, 5-pyrimidinecarboxamide, N-[(2,4-difluorophenyl)methyl]-2-[[2-(dimethylamino)ethyl]amino]-4-[1-(4-fluorophenyl)cyclopentyl]-] came in with an EC50 of 967 nM.

As to `O=C(NCc1ccc(F)cc1F)c1cnc(NC2CCCC2)nc1C1(c2ccc(F)cc2)CCCC1` [Example 273, 5-pyrimidinecarboxamide, 2-(cyclopentylamino)-N-[(2,4-difluorophenyl)methyl]-4-[1-(4-fluorophenyl)cyclopentyl]-], the midpoint of the response, the EC50, lay at 115 nM. For the molecule `CC1CCC(Nc2ncc(C(=O)NCc3cc(F)cc(C(F)(F)F)c3)c(C3(c4ccc(F)cc4)CCCC3)n2)CC1` (stereo not shown) [Example 274, 5-pyrimidinecarboxamide, 4-[1-(4-fluorophenyl)cyclopentyl]-N-[[3-fluoro-5-(trifluoromethyl)phenyl]methyl]-2-[(4-methylcyclohexyl)amino]-], the EC50 is 29 nM. To `O=C(NCc1cc(F)cc(C(F)(F)F)c1)c1cnc(N2CCCC2)nc1C1(c2ccc(F)cc2)CCCC1` [Example 275, 5-pyrimidinecarboxamide, 4-[1-(4-fluorophenyl)cyclopentyl]-N-[[3-fluoro-5-(trifluoromethyl)phenyl]methyl]-2-(1-pyrrolidinyl)-] belongs 24 nM. To `CN1CCN(c2ncc(C(=O)NCc3cc(F)cc(C(F)(F)F)c3)c(C3(c4ccc(F)cc4)CCCC3)n2)CC1` [Example 276, 5-pyrimidinecarboxamide, 4-[1-(4-fluorophenyl)cyclopentyl]-N-[[3-fluoro-5-(trifluoromethyl)phenyl]methyl]-2-(4-methyl-1-piperazinyl)-] belongs 327 nM; to `CC1CCCN(c2ncc(C(=O)NCc3cc(F)cc(C(F)(F)F)c3)c(C3(c4ccc(F)cc4)CCCC3)n2)C1` (stereo not shown) [Example 277, 5-pyrimidinecarboxamide, 4-[1-(4-fluorophenyl)cyclopentyl]-N-[[3-fluoro-5-(trifluoromethyl)phenyl]methyl]-2-(3-methyl-1-piperidinyl)-], 22 nM.

Turning to `CC1CCN(c2ncc(C(=O)NCc3cc(F)cc(C(F)(F)F)c3)c(C3(c4ccc(F)cc4)CCCC3)n2)CC1` [Example 278, 5-pyrimidinecarboxamide, 4-[1-(4-fluorophenyl)cyclopentyl]-N-[[3-fluoro-5-(trifluoromethyl)phenyl]methyl]-2-(4-methyl-1-piperidinyl)-], the concentration giving a half-maximal response (EC50) was found to be 10 nM.

Molecule `CCC(C)Nc1ncc(C(=O)NCc2cc(F)cc(C(F)(F)F)c2)c(C2(c3ccc(F)cc3)CCCC2)n1` (stereo not shown) [Example 279, 5-pyrimidinecarboxamide, 4-[1-(4-fluorophenyl)cyclopentyl]-N-[[3-fluoro-5-(trifluoromethyl)phenyl]methyl]-2-[(1-methylpropyl)amino]-] had a 50% effective concentration (EC50) of 55 nM. `O=C(NCc1cc(F)cc(C(F)(F)F)c1)c1cnc(NC2CCCC2)nc1C1(c2ccc(F)cc2)CCCC1` [Example 280, 5-pyrimidinecarboxamide, 2-(cyclopentylamino)-4-[1-(4-fluorophenyl)cyclopentyl]-N-[[3-fluoro-5-(trifluoromethyl)phenyl]methyl]-] yielded a concentration for a half-maximal effect (EC50) of 60 nM. The result for `CC1CCC(Nc2ncc(C(=O)NC(C)c3ccc(F)cc3)c(C3(c4ccc(F)cc4)CCCC3)n2)CC1` (stereo not shown) [Example 281, 5-pyrimidinecarboxamide, 4-[1-(4-fluorophenyl)cyclopentyl]-N-[1-(4-fluorophenyl)ethyl]-2-[(4-methylcyclohexyl)amino]-] reads 118 nM; that for `CC(NC(=O)c1cnc(N2CCCC2)nc1C1(c2ccc(F)cc2)CCCC1)c1ccc(F)cc1` (stereo not shown) [Example 282, 5-pyrimidinecarboxamide, 4-[1-(4-fluorophenyl)cyclopentyl]-N-[1-(4-fluorophenyl)ethyl]-2-(1-pyrrolidinyl)-], 594 nM; that for `CC(NC(=O)c1cnc(N2CCN(C)CC2)nc1C1(c2ccc(F)cc2)CCCC1)c1ccc(F)cc1` (stereo not shown) [Example 283, 5-pyrimidinecarboxamide, 4-[1-(4-fluorophenyl)cyclopentyl]-N-[1-(4-fluorophenyl)ethyl]-2-(4-methyl-1-piperazinyl)-], 752 nM.

`CC1CCCN(c2ncc(C(=O)NC(C)c3ccc(F)cc3)c(C3(c4ccc(F)cc4)CCCC3)n2)C1` (stereo not shown) [Example 284, 5-pyrimidinecarboxamide, 4-[1-(4-fluorophenyl)cyclopentyl]-N-[1-(4-fluorophenyl)ethyl]-2-(3-methyl-1-piperidinyl)-] came in with an EC50 of 78 nM. `CC1CCN(c2ncc(C(=O)NC(C)c3ccc(F)cc3)c(C3(c4ccc(F)cc4)CCCC3)n2)CC1` (stereo not shown) [Example 285, 5-pyrimidinecarboxamide, 4-[1-(4-fluorophenyl)cyclopentyl]-N-[1-(4-fluorophenyl)ethyl]-2-(4-methyl-1-piperidinyl)-] yielded an EC50 of 95 nM. Molecule `CCC(C)Nc1ncc(C(=O)NC(C)c2ccc(F)cc2)c(C2(c3ccc(F)cc3)CCCC2)n1` (stereo not shown) [Example 286, 5-pyrimidinecarboxamide, 4-[1-(4-fluorophenyl)cyclopentyl]-N-[1-(4-fluorophenyl)ethyl]-2-[(1-methylpropyl)amino]-] registered a concentration giving a half-maximal response (EC50) of 852 nM. `CC(NC(=O)c1cnc(NC2CCCC2)nc1C1(c2ccc(F)cc2)CCCC1)c1ccc(F)cc1` (stereo not shown) [Example 287, 5-pyrimidinecarboxamide, 2-(cyclopentylamino)-4-[1-(4-fluorophenyl)cyclopentyl]-N-[1-(4-fluorophenyl)ethyl]-]: the EC50 came out at 573 nM.

`CC1CCN(c2ncc(C(=O)NCc3ccc(C(F)(F)F)cc3)c(C3(c4ccc(F)cc4)CCCC3)n2)CC1` [Example 288, 5-pyrimidinecarboxamide, 4-[1-(4-fluorophenyl)cyclopentyl]-2-(4-methyl-1-piperidinyl)-N-[[4-(trifluoromethyl)phenyl]methyl]-] gave a concentration for a half-maximal effect (EC50) of 75 nM.

By EC50 is commonly meant the concentration that produces a half-maximal response. A higher EC50 goes with weaker potency.
